According to patent US8058283B2, “7H-pyrido[3,4-D]pyrimidin-8-ones, their manufacture and use as protein kinase inhibitors” (Hoffmann-La Roche Inc., priority 2006, dated 2011):
pIC50: −log10 of the molar value.

Experiments:
Format in all cases: biochemical
Src (p60c-src) = molecular target: T1, Src (p60c-src) (Homo sapiens, UniProt P12931); assay: Src-Inhibitor-Assay (time-resolved fluorescence); conditions: ATP 5 μM; enzyme pre-incubated 15 min at 15° C. with inhibitor
T1 construct: purchased UBI, Upstate Biotech, Inc
T1 sequence (P12931 whole entry): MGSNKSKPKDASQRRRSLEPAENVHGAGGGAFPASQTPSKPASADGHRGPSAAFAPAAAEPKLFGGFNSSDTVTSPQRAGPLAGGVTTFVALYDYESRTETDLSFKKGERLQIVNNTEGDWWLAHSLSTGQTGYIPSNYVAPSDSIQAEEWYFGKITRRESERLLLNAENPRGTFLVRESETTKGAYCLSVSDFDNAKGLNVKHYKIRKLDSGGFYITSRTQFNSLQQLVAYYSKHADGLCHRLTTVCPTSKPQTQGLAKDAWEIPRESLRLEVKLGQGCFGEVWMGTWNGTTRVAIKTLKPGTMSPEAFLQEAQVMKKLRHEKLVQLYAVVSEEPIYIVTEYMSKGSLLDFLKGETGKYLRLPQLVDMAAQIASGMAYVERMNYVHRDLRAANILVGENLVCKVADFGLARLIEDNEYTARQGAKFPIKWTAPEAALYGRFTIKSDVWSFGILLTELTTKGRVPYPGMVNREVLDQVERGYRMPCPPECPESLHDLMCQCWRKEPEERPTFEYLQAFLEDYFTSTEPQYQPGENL
Procedure: Src-Inhibitor-Assay Parameters:
• ATP 5 μM • Peptide (Ro+Ja133-Ro): 10 μM • Ja133-Ro 196 nM • Ro 9.8 μM • PT66 230 ng/ml • Assay buffer: 4 mM MgCl2 • 2 mM TCEP • 50 mM HEPES • 0.1% Tween 20 • pH 7.3 • Enzyme: 2.5 U/ml • Inhibitor: max. 25 μM • min. 0.42 nM Material: • Eu-labelled phosphotyrosine antibody: —for Lck Cisbio Mab PT66-K, • for Src EG&G Wallac PT66 Eu-W1024 (all commercially available). • Peptides: Ro: NH2-A-E-E-E-I-Y-G-E-F-E-A-K-K-K-K-CONH2, and • Ja133-Ro: Ja133-G-Aminocaprylic acid-A-E-E-E-I-Y-G-E-F-E-A-K-K-K-K-CONH2, wherein Ja133 is LightCycler-Red 640-N-hydroxy succinimide ester; • whereby both peptides were synthesized by an optimized solid phase peptide synthesis protocol (Merrifield, Fed. Proc. Fed. Amer. Soc. Exp. Biol. 21 (1962) 412) on a Zinsser SMP350 peptide synthesizer. Shortly, the peptide was assembled on 160 mg (22.8 μmol scale) of a Rink-Linker modified polystyrene solid phase by repeatedly conjugating an twenty fold excess of amino acids each protected by temporary piperidine labile Fmoc- and permanent acid labile tert-Bu-, BOC- and O-tert-Bu-groups depending on the side chain function. The substrate sequence AEEEIYGEFEAKKKK was N-terminal additionally mounted with the spacer amino acids Aminocaprylic acid and Glycin. After cleavage of the N-terminal temporary protecting group the still attached and protected peptide was labeled with a 1.5 fold amount of LightCycler-Red 640-N-hydroxy succinimide ester (purchased from Roche Diagnostics GmbH) and triethylamine. After 3 hrs. the resin was washed with Dimethylformamide and Isopropanol until the eluates of the blue resin got colourless. […] The substrate was finally isolated by a preparative reverse phase HPLC purification. The purification yielded 12.2 mg RP-HPLC single peak pure blue material (lyophilisate). The identity was proven by MALDI mass spectroscopy [2720.0]. • Enzymes: Upstate Lck (p56^lck, active), Upstate Src (p60^c-src, partially purified) were purchased from UBI, Upstate Biotech, Inc. Time-resolved Fluorescence Assay: Reader: Perkin Elmer, Wallac Viktor 1420-040 multilabel counter; Liquid handling system: Beckman Coulter, Biomek 2000.
ATP, Tween™ 20, 4-(2-hydroxyethyl)-1-piperazineethanesulfonic acid (HEPES) were purchased from Roche Molecular Biochemicals, MgCl2 and MnCl2 were purchased from Merck Eurolab, Tris(2-carboxyethyl)phosphine hydrochloride (TCEP) was purchased from Pierce, 384 Well low volume fluorescence plates was purchased from Falcon.
At first the enzyme is pre-incubated for 15 min. at 15° C. in aqueous solution with corresponding amounts of inhibitors according to this invention. Then the phosphorylation reaction is started by adding a reaction mixture, containing ATP, Peptide and PT66, and subsequent shaking. The proceeding of this reaction is immediately monitored using time resolved fluorescence spectroscopy in a suitable well plate reader.
The IC50-values can be obtained from the reaction rates by using a non-linear curve fit (XLfit software (ID Business Solution Ltd., Guilford, Surrey, UK)).

[1] = molecular target: T2, mouse Abl (27-end) fusion protein (Mus musculus, UniProt P00520); assay: IC50 determination for inhibitors of Abl kinase (IMAP fluorescence polarization); conditions: 22.8 uM ATP, 37° C., 60 minutes; read-out: IC50 Abl kinase inhibition
T2 construct: fusion protein corresponding to mouse Abl (27-end)
T2 sequence (P00520 27-1123 limits assumed): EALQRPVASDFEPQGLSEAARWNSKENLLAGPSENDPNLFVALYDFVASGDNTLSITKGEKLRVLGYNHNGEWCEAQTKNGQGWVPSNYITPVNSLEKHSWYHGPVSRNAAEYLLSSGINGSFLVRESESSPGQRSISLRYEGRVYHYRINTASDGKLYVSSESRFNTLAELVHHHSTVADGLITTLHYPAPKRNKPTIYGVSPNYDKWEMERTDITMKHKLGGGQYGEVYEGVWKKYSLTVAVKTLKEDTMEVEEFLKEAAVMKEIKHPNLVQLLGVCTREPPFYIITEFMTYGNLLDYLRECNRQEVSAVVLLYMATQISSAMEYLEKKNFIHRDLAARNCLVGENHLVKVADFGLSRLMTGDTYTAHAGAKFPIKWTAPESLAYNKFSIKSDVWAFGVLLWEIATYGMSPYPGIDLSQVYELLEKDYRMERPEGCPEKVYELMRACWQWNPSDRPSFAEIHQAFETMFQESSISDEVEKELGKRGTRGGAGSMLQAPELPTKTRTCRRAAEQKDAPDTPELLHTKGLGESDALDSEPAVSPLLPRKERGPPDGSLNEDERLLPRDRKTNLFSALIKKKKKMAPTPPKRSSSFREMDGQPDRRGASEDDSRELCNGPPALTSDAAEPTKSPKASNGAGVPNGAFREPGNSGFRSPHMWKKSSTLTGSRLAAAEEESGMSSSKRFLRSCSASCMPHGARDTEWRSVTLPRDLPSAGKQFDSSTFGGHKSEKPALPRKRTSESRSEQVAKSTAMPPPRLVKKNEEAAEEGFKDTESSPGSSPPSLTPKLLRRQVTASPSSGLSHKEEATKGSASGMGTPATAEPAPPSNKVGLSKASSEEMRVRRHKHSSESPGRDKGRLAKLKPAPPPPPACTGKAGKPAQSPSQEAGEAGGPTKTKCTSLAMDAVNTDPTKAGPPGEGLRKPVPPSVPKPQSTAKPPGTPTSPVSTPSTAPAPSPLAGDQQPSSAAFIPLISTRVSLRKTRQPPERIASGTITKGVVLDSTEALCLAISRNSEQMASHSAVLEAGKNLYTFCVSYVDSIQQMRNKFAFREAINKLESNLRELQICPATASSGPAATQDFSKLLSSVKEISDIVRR
Procedure: IC50 Determination for Inhibitors of Abl Kinase
Abl assay was done using fusion protein corresponding to mouse Abl (27-end) fluorescein labeled peptide substrate (with a sequence of EAIYAAPFAKKK) and quantified by Molecular Devices' IMAP fluorescence polarization technology. Compounds were tested in serially diluted concentrations in 384 well plates. Kinase reaction was performed in KAB Buffer (10 mM HEPES, pH 7, 50 mM NaCl, 5 mM MgCl2, 1 mM DTT, 0.1 mM NaVO4, 0.02% BSA), in the presence of 22.8 uM ATP, incubated at 37° C. for 60 minutes. Reaction was stopped by IMAP bead mix (at 1:400 diluted). After incubation at room temperature for 3 hours, the reaction product was analyzed on LJL Acquest (excitation 485 nm and Emission 530 nm).
(§1) FP reading (in mP) was used to calculate reaction rate. The assay was semi-automated by Tomtec Quadra workstation.

[2] = molecular target: human recombinant PDGFR beta (Homo sapiens, UniProt P09619); assay: IC50 determination for inhibitors of PDGFR kinase (IMAP fluorescence polarization); conditions: 48 uM ATP, room temperature, 60 minutes; read-out: IC50 PDGFR kinase inhibition
Chain of human recombinant PDGFR beta (P09619 33-1106): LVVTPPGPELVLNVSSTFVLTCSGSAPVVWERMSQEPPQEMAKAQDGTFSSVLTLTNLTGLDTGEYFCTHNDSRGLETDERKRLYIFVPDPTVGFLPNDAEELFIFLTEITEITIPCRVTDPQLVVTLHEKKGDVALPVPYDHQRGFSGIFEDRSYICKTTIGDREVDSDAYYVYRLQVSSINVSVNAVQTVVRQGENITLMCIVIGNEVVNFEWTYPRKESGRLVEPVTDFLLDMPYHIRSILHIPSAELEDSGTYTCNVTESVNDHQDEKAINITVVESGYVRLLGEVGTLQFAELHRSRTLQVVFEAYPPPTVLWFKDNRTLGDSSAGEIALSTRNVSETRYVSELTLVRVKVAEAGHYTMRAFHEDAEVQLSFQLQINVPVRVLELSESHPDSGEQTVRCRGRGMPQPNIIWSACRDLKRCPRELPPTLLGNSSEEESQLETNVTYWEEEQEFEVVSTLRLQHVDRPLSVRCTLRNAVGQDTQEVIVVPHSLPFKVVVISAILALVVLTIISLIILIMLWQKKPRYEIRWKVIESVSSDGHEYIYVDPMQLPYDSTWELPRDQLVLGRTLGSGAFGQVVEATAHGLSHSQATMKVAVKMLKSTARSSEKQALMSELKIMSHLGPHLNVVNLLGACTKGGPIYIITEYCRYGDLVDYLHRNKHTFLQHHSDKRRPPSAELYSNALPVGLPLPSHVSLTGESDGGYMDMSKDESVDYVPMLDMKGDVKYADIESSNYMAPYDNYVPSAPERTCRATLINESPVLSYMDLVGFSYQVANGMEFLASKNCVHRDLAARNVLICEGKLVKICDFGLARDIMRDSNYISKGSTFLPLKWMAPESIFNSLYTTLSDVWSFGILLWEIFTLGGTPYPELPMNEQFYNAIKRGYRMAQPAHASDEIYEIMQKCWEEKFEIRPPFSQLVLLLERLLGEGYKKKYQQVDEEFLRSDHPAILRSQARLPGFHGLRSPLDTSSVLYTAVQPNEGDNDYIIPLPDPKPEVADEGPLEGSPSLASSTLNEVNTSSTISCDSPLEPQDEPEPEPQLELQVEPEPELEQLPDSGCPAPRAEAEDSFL
Procedure: IC50 Determination for Inhibitors of PDGFR Kinase Assay Principle
PDGFR assay was carried out with human recombinant PDGFR beta, fluorescein labeled peptide substrate (with a peptide sequence of ALTSNQEYLDLSMPL) and test compounds (in serial dilution) using 384-well plates. Kinase reaction was performed in MOPS buffer (20 mM MOPS pH 7.1, 5 mM Sodium Acetate, 6.25 mM MgCl2, 0.5 mM EDTA, 1 mM DTT, 0.04 mM NaVO4, 0.02% BSA), in the presence of 48 uM ATP, incubated at room temperature for 60 minutes. Reaction was stopped by IMAP Bead Binding System (Molecular Devices). After incubation at room temperature for 2 hours, the reaction product was analyzed on LJL Acquest.
as §1

Compound	pIC50 (Src (p60c-src))	pIC50 [1]	pIC50 [2]
Cc1ccccc1-c1cc2cnc(Nc3cccc([S+](C)[O-])c3)nc2c(=O)n1C (stereo not shown) [Example 10, 2-(3-Methanesulfinyl-phenylamino)-7-methyl-6-o-tolyl-7H-pyrido[3,4-d]pyrimidin-8-one]	6.30 to 9.00	6.30 to 9.00	6.38
Cc1ccccc1-c1cc2cnc(Nc3ccc(N4CCN(C)CC4)cc3)nc2c(=O)n1C [Example 3, 7-Methyl-2-[4-(4-methyl-piperazin-1-yl)-phenylamino]-6-o-tolyl-7H-pyrido[3,4-d]pyrimidin-8-one]	6.30 to 9.00	6.30 to 9.00	7.03
Cc1ccccc1-c1cc2cnc(NC3CCOCC3)nc2c(=O)n1C [Example 12, 7-Methyl-2-(tetrahydro-pyran-4-ylamino)-6-o-tolyl-7H-pyrido[3,4-d]pyrimidin-8-one]	6.16	4.82 to 6.30	–
Cc1ccccc1-c1cc2cnc(NC(CO)CO)nc2c(=O)n1C [Example 4, 2-(2-Hydroxy-1-hydroxymethyl-ethylamino)-7-methyl-6-o-tolyl-7H-pyrido[3,4-d]pyrimidin-8-one]	5.82 to 6.30	4.82 to 6.30	–
Cc1ccccc1-c1cc2cnc(Nc3ccc(S(=O)(=O)NCCO)cc3)nc2c(=O)n1CC(N)=O [Example 5, 2-{2-[4-(2-Hydroxy-ethylsulfamoyl)-phenylamino]-8-oxo-6-o-tolyl-8H-pyrido[3,4-d]pyrimidin-7-yl}-acetamide]	6.30 to 9.00	7.11	–
CCN(CC)CCOc1ccc(Nc2ncc3cc(-c4ccccc4Cl)n(Cc4cc(C)n(C)n4)c(=O)c3n2)cc1 [Example 31, 6-(2-Chloro-phenyl)-2-[4-(2-diethylamino-ethoxy)-phenylamino]-7-(1,5-dimethyl-1H-pyrazol-3-ylmethyl)-7H-pyrido[3,4-d]pyrimidin-8-one]	6.30 to 9.00	6.30 to 9.00	–
COc1cccc(Cn2c(-c3ccccc3C)cc3cnc(Nc4cccc([S+](C)[O-])c4)nc3c2=O)c1 (stereo not shown) [Example 23, 2-(3-Methanesulfinyl-phenylamino)-7-(3-methoxy-benzyl)-6-o-tolyl-7H-pyrido[3,4-d]pyrimidin-8-one]	6.30 to 9.00	6.30 to 9.00	–
Cc1ccccc1-c1cc2cnc(Nc3cccc([S+](C)[O-])c3)nc2c(=O)n1CC(N)=O (stereo not shown) [Example 8, 2-[2-(3-Methanesulfinyl-phenylamino)-8-oxo-6-o-tolyl-8H-pyrido[3,4-d]pyrimidin-7-yl]-acetamide]	6.30 to 9.00	6.67	–
COc1cccc(Cn2c(-c3ccccc3C)cc3cnc(Nc4ccc(N5CCN(C)CC5)cc4)nc3c2=O)c1 [Example 20, 7-(3-Methoxy-benzyl)-2-[4-(4-methyl-piperazin-1-yl)-phenylamino]-6-o-tolyl-7H-pyrido[3,4-d]pyrimidin-8-one]	6.30 to 9.00	6.30 to 9.00	4.82 to 6.30
CCN(CC)CCOc1ccc(Nc2ncc3cc(-c4ccccc4C)n(C)c(=O)c3n2)cc1 [Example 7, 2-[4-(2-Diethylamino-ethoxy)-phenylamino]-7-methyl-6-o-tolyl-7H-pyrido[3,4-d]pyrimidin-8-one]	6.30 to 9.00	6.30 to 9.00	6.30 to 9.00
CCN(CC)CCOc1ccc(Nc2ncc3cc(-c4ccccc4C)n(Cc4cccc(OC)c4)c(=O)c3n2)cc1 [Example 22, 2-[4-(2-Diethylamino-ethoxy)-phenylamino]-7-(3-methoxy-benzyl)-6-o-tolyl-7H-pyrido[3,4-d]pyrimidin-8-one]	–	6.30 to 9.00	–
Cc1cc(Cn2c(-c3ccccc3Cl)cc3cnc(Nc4ccc(N5CCN(C)CC5)cc4)nc3c2=O)nn1C [Example 30, 6-(2-Chloro-phenyl)-7-(1,5-dimethyl-1H-pyrazol-3-ylmethyl)-2-[4-(4-methyl-piperazin-1-yl)-phenylamino]-7H-pyrido[3,4-d]pyrimidin-8-one]	6.30 to 9.00	6.30 to 9.00	4.82 to 6.30
COc1cccc(Cn2c(-c3ccccc3Cl)cc3cnc(Nc4ccc(S(=O)(=O)NCCO)cc4)nc3c2=O)c1 [Example 37, 4-[6-(2-Chloro-phenyl)-7-(3-methoxy-benzyl)-8-oxo-7,8-dihydro-pyrido[3,4-d]pyrimidin-2-ylamino]-N-(2-hydroxy-ethyl)-benzenesulfonamide]	6.30 to 9.00	6.30 to 9.00	–
Cc1ccccc1-c1cc2cnc(Nc3ccc(S(=O)(=O)NCCO)cc3)nc2c(=O)n1C [Example 6, N-(2-Hydroxy-ethyl)-4-(7-methyl-8-oxo-6-o-tolyl-7,8-dihydro-pyrido[3,4-d]pyrimidin-2-ylamino)-benzenesulfonamide]	6.30 to 9.00	6.30 to 9.00	6.30 to 9.00
COc1cccc(Cn2c(-c3ccccc3C)cc3cnc(Nc4ccc(S(=O)(=O)NCCO)cc4)nc3c2=O)c1 [Example 21, N-(2-Hydroxy-ethyl)-4-[7-(3-methoxy-benzyl)-8-oxo-6-o-tolyl-7,8-dihydro-pyrido[3,4-d]pyrimidin-2-ylamino]-benzenesulfonamide]	6.30 to 9.00	6.30 to 9.00	–
Cc1ccccc1-c1cc2cnc(Nc3ccc(N4CCOCC4)cc3)nc2c(=O)n1C [Example 1, 7-Methyl-2-(4-morpholin-4-yl-phenylamino)-6-o-tolyl-7H-pyrido[3,4-d]pyrimidin-8-one]	8.54	6.30 to 9.00	6.30 to 9.00
Cc1cc(Cn2c(-c3ccccc3Cl)cc3cnc(Nc4cccc([S+](C)[O-])c4)nc3c2=O)nn1C (stereo not shown) [Example 33, 6-(2-Chloro-phenyl)-7-(1,5-dimethyl-1H-pyrazol-3-ylmethyl)-2-(3-methanesulfinyl-phenylamino)-7H-pyrido[3,4-d]pyrimidin-8-one]	6.30 to 9.00	6.30 to 9.00	–
